Experimental data reported in PMC6928761, “Trypanocidal Mechanism of Action and in silico Studies of p-Coumaric Acid Derivatives” (International Journal of Molecular Sciences, 2019).
Like-named read-outs stand apart in the source and are kept apart here.

Tests used:
[1] = system: LLC-MK2 cells; assay: Cytotoxicity evaluation (mammalian cells), MTT assay; type: cell-based; details: Macaca mulatta, read-out: LLC-MK2 IC50
Experimental: (§1) The trypanocidal activity of the p-coumaric derivatives (1–12) were evaluated against epimastigotes and trypomastigote forms of T. cruzi (strain Y) at 24 h of incubation and in host LLC-MK2 cells at 24 h of exposure to different concentrations: 100; 50; 25; 12.5; 6.25; 3.12; and 1.56 μg/mL. In the MTT assay it was possible to calculate the IC50 of the tested substances through cell viability, which was calculated in relation to the negative control, whose absorbance was considered 100%.
For cell viability we used a standard MTT assay. LLC-MK2 cells were inoculated in DMEM medium, treated with different concentrations of p-coumaric derivatives and incubated at 37 °C for 24 h. MTT (Amresco, Solon, Ohio, USA; 5 mg/mL) was inserted and the cells were incubated for 4 h.
In the next procedure, formazan was solubilized in 10% sodium dodecyl sulfate (SDS; Vetec, São Paulo, Brazil). For cell viability analysis, a plate reader (Biochrom® Asys Expert Plus, CAMBRIGE, UK) with a wavelength of 570 nm was used. While in relative cell viability cells were calculated, which were treated with sterile PBS in triplicate for negative controls and experiments.

[2] = system: T. cruzi (strain Y) epimastigotes; assay: Effect on T. cruzi epimastigote forms (24 h, Neubauer chamber count); type: cell-based, Trypanosoma cruzi; details: for trypanocidal activity (in words): epimastigote forms
Experimental: as §1
Preparation of T. cruzi epimastigote was performed by cultivation in 96-well Y-staining plates at a density of 10^6 cells/mL, and using liver tryptose infusion with 10% fetal bovine serum (SFB) supplementation, and 1% antibiotic. They were then treated with p-coumaric derivatives. The grown parasites presenting inhibition were collected and quantified in a Neubauer chamber after incubation at 28 °C for 24 h. To determine relative viability, parasites treated only with sterile PBS medium were used as negative controls (viability of 100%), and experiments were performed in triplicate.

[3] = system: T. cruzi epimastigote forms; assay: Mitochondrial transmembrane potential, rhodamine 123 flow cytometry; type: cell-based, Trypanosoma cruzi; details: 5.164 and 10.329 μM, 24 h
Experimental: Mitochondrial transmembrane potential (ΔΨm) was assessed using rhodamine 123 fluorescent dye (Rho123).
Rhodamine 123 (Rho123) is a lipophilic and cationic dye that under normal conditions accumulates in the mitochondrial inter-membrane space. Presenting affinity with hydrogen ions, there is a reduction in the concentration of H^+ ions in the inter-membrane space, which decreases Rho123 accumulation, as illustrated in Figure 5. Changes in ΔΨm can be measured using Rho123, measuring the decrease in green fluorescence.
The compound 7 (5.164 and 10.329 μM) was added to the epimastigotes (10^6 cells) in 24-well plates. At 24 h of incubation, cells were transferred to tubes, centrifuged and washed with PBS. The cells were then re-suspended in 100 µL PBS, and 5 µL of Rho123 solution (200 µg/mL in absolute ethanol) was added to obtain a final concentration of 10 µg/mL. Samples were incubated in the dark for 30 min, washed twice with PBS, and re-suspended in PBS (500 µL/tube). Finally, the samples were analyzed using flow cytometry. Results were evaluated using relative fluorescent intensity, calculated as described in the previous item.

[4] = system: T. cruzi epimastigote forms; assay: Cell death profile, 7-AAD / annexin V-PE flow cytometry; type: cell-based, Trypanosoma cruzi; details: 5.164 and 10.329 μM, 24 h
Experimental: Epimastigote forms were used to assess the cell death profile using labeling with AxPE and 7-AAD. For data interpretation, the cells were divided into four cell populations: viable cells, with low levels of labeling for both fluorochromes (un-labeled); necrotic cells, labeled only with 7-AAD (7AAD +); apoptotic cells, labeled with annexin V-PE only (/ AxPE +); and doubly labeled late apoptotic cells (7AAD +/AxPE +).
Evaluation of the mechanism by which compound 7 induced cell death was performed using flow cytometry with 7-AAD (7-aminoactinomicyn D) and phycoerythrin-labeled Annexin V (AxPE) as fluorescent markers. 7-AAD is a molecule capable of specifically interleaving into DNA. However, it is not able to penetrate cells with intact membranes. Cells with high 7-AAD labeling are thus considered necrotic due to loss of membrane integrity. Annexin V is a 36 KDa protein that in the presence of calcium ions presents high affinity for phosphatidylserine. Thus, Ax/PE is used to evaluate external phosphatidylserine as a marker of apoptosis.
T. cruzi epimastigote forms were cultured at a density of 10^6 cells/mL in the presence of compound 7 (at concentrations of 5.164 and 10.329 μM) for 24 h in a BOD greenhouse. The cells were then transferred to cytometry tubes, centrifuged at 4000 RPM for 5 min, and washed with PBS once, and then washed twice with binding buffer (pH 7.4; 10 mM HEPES solution; 140 mM NaCl and 2.5 CaCl2 mM). After final centrifugation, the pellet was re-suspended in 100 µl binding buffer, 5 µl 7-AAD (0.5 mg/mL), and 5 µl Ax/PE. […] After 15 min of incubation in the dark, 400 µl of binding buffer was added to each tube and cells were analyzed on FACSCalibur (BD Biosciences, San José, Califórnia, EUA).
For each tube, a minimum of 10^4 cells were analyzed for quantitation of the percentage of unlabeled, and individually or double labeled 7-AAD and Ax/PE cells. […] Ax/PE labeled cells were read by an FL2 detector (563 at 606 nm, yellow fluorescence), while 7-AAD labeled cells were read at 615 to 645 nm wavelength (red fluorescence, FL3 detector).

[5] = system: T. cruzi (strain Y) trypomastigotes; assay: Effect on T. cruzi trypomastigote forms (24 h); type: cell-based; details: Trypanosoma cruzi, read-out: Y strain (Tripomastigotes) IC50
Experimental: as §1
Acquisition of T. cruzi trypomastigotes was by infection of LLCMK2 cells using trypomastigotes in T-25/75cm^2 containers at 37 °C with 5% CO2 atmosphere in DMEM (Vitrocell, São Paulo, Brazil) and supplementation of 1% antibiotics and 2% SFB for 24 h. Then the trypomastigotes were plated and treated with p-coumaric acid derivatives. Cell viability was counted after 24 h of incubation at 37 °C. LC50 was obtained. While relative cell viability was calculated using sterile PBS-treated cells for both negative controls and experiments, all in triplicate.

[6] = system: T. cruzi epimastigote forms; assay: Cytoplasmic reactive oxygen species, DCFH-DA flow cytometry; type: cell-based, Trypanosoma cruzi; details: both treated groups (5.164 and 10.329 μM) vs control, 24 h
Experimental: The increased presence of reactive oxygen species (ROS) in the cytoplasm of compound 7 treated epimastigote cells was analyzed using the 2′,7′-dichlorofluorescein diacetate reagent (DCFH-DA). As a lipophilic molecule, when internalized in cells it is cleaved by cytoplasmic esterase into DCFH (reduced 2′-7′-dichlorofluorescein), and as it is unable to cross membranes DCFH reacts with intra-cytoplasmic ROSs producing DCF (oxidized 2′-7′-dichlorofluorescein). DCF emits green fluorescence, and the fluorescent intensity emitted by the cell is directly proportional to the intra-cytoplasmic ROS concentration.
A concentration of 10^6 epimastigotes/mL were placed in 24-well plates in the presence of BIS (5.164 and 10.329 μM). […] After 24 h of incubation with compound 7, the cells were harvested, centrifuged (2800 RPM for 7 min), washed with PBS twice, and re-suspended in 500 µL PBS. At the end, the cells were analyzed by flow cytometer.
In accordance with Kessler et al. (2013), the level of labeling in each group was assessed by the mean geometric fluorescence intensity. The results obtained were expressed as relative fluorescence intensity using the formula:(1) Relative fluorescence=mTEST/mCONTROL where: • mTEST = geometric mean of the group to be analyzed; • mCONTROL = geometric mean of the control group.

[7] = system: T. cruzi amastigotes; set-up: method as in Lima et al. (2015) [41]; details: ref Lima et al. (2015) [41]; read-out: activity against T. cruzi amastigotes; cited from earlier work
[8] = system: Trypanosoma brucei; set-up: method as in Steverding et al. (2016) [47]; details: ref Steverding et al. (2016) [47]; cited from earlier work
[9] = Trypanosoma cruzi, 24 h, read-out: Y strain (Epimastigotes) IC50, 24 h incubation

## CCOC(=O)/C=C/c1ccc(O)cc1 [compound 2]
[1]; LLC-MK2, 24 h
  IC50: 443 ± 109 µM
[2]; [9]
  IC50: 216 ± 109 µM

## CCCCCCOC(=O)/C=C/c1ccc(O)cc1 [compound 9]
[1]; LLC-MK2, 24 h
  IC50: 131 ± 16.9 µM
[2]; [9]
  IC50: 68.9 ± 18.1 µM

## CCCCCOC(=O)/C=C/c1ccc(O)cc1 [compound 7, pentyl p-coumarate]
[3]
  rhodamine 123 accumulation (mitochondrial transmembrane potential): reduction
[4]
  cell death profile: cell death by necrosis
  percentage of 7-AAD-labeled cells: increase
  percentage of viable cells: reduction
[5]
  IC50: 61.6 ± 28.6 µM
[1]; LLC-MK2, 24 h
  IC50: 123 ± 22.6 µM
[2]; [9]
  IC50: 5.16 ± 1.28 µM
[2]
  trypanocidal activity (in words): good trypanocidal activity
[6]
  relative fluorescence (DCF, reactive oxygen species): increase

## CCOC(=O)/C=C/c1ccc(O)c(O)c1 [ethyl caffeate]
[7]
  IC50: 18.3 µM

## CCCCCCCCCCCCOC(=O)/C=C/c1ccc(O)cc1 [compound 10]
[1]; LLC-MK2, 24 h
  IC50: 141 ± 15.2 µM
[2]; [9]
  IC50: 50.6 ± 18.9 µM

## Cc1ccc(COC(=O)/C=C/c2ccc(O)cc2)cc1 [compound 11]
[1]; LLC-MK2, 24 h
  IC50: 160 ± 97.6 µM
[2]; [9]
  IC50: 75.5 ± 13.4 µM
[2]
  trypanocidal activity (in words): did not show significant trypanocidal activity

## CC(C)CCOC(=O)/C=C/c1ccc(O)cc1 [compound 8, isopentyl p-coumarate]
[5]
  IC50: 111 ± 38.7 µM
[1]; LLC-MK2, 24 h
  IC50: 120 ± 19.2 µM
[2]; [9]
  IC50: 13.2 ± 2.56 µM
[2]
  trypanocidal activity (in words): good trypanocidal activity

## COCCOC(=O)/C=C/c1ccc(O)cc1 [compound 5, 2-methoxyethyl p-coumarate]
[5]
  IC50: 360 ± 112 µM
[1]; LLC-MK2, 24 h
  IC50: > 450 µM
[2]; [9]
  IC50: 32 ± 5.39 µM
[2]
  trypanocidal activity (in words): good trypanocidal activity

## CCCOC(=O)/C=C/c1ccc(O)cc1 [compound 3, Propyl p-coumarate]
[5]
  IC50: 117 ± 59.1 µM
[1]; LLC-MK2, 24 h
  IC50: 446 ± 187 µM
[2]; [9]
  IC50: 16.8 ± 1.93 µM
[2]
  trypanocidal activity (in words): good trypanocidal activity

## CC(C)OC(=O)/C=C/c1ccc(O)cc1 [compound 4]
[1]; LLC-MK2, 24 h
  IC50: 290 ± 49 µM
[2]; [9]
  IC50: 335 ± 54.3 µM

## COC(=O)/C=C/c1ccc(O)cc1 [compound 1, (E)-Methyl 3-(4-hydroxyphenyl)acrylate]
[1]; LLC-MK2, 24 h exposure, MTT
  IC50: > 561 µM
[2]; Trypanosoma cruzi, 24 h incubation, read-out: Y strain (Epimastigotes) IC50
  IC50: 601 ± 249 µM

## CC(C)c1ccc(COC(=O)/C=C/c2ccc(O)cc2)cc1 [compound 12]
[1]; LLC-MK2, 24 h
  IC50: 2.74 µM
[2]; [9]
  IC50: 68.9 ± 18.1 µM
[2]
  trypanocidal activity (in words): did not show significant trypanocidal activity
[2]; read-out: Y strain (Epimastigotes) IC50, 24 h incubation
  IC50: 40.1 ± 10.1 µM

## CC(C)CCOC(=O)/C=C/c1ccc(O)c(O)c1 [isopentyl caffeate]
[8]
  effect on parasite growth: inhibited parasite growth

## CCCCOC(=O)/C=C/c1ccc(O)cc1 [compound 6]
[1]; LLC-MK2, 24 h
  IC50: 274 ± 46.8 µM
[2]; [9]
  IC50: 155 ± 33.1 µM
